Measured values taken from patent US20230348487A1, “2-AMINOPYRIMIDINE COMPOUND AND PHARMACEUTICAL COMPOSITION THEREOF AND APPLICATION THEREOF” (GUANGZHOU SALUSTIER BIOSCIENCES CO., LTD., priority 2021, published 2023).
“And” between values parts separate entries of the source, which are not always exact repeats. Equal values may be shown once. Read-outs that look alike come from different tables or passages of the source.

Tests used:
[1] = Rat liver microsomes stability test; type: in vitro ADME; conditions: for Remaining percentage: rat liver microsomes, average value
Experimental: Firstly, preheated 0.1 M potassium phosphate buffer with 5 mM MgCl2 (i.e. K/Mg buffer) at pH 7.4±0.1. Prepared the spiked solution for the tested compound and reference compound (500 μM spiked solution: added 5 μL of 10 mM stock solution into 95 μL of acetonitrile; 1.5 μM microsomal spiked solution (0.75 mg/mL): added 1.5 μL of 500 μM spiked solution and 18.75 μL of 20 mg/mL liver microsomes into 479.75 μL of K/Mg buffer). Then NADPH was dissolved in buffer K to prepare a 6 mM, 5 mg/mL NADPH stock solution. At different time points (0-, 5-, 15-, 30-, 45 minutes), 30 μL of 1.5 μM spiked solution containing 0.75 mg/mL of microsome solution was distributed onto the designated detection plate. At 0 min, 150 μL of acetonitrile containing internal standard (IS) was added to the 0 min plate well, followed by 15 μL of NADPH stock solution (6 mM). Then, all plates were pre-incubated at 37° C. for 5 minutes, added 15 μL of NADPH stock solution (6 mM), the reaction was initiated and timed. At 5 minutes, 15 minutes, 30 minutes, and 45 minutes, added 150 μL of acetonitrile solution containing IS to the corresponding wells to stop the reaction. After quenching, the plate was shaken for 10 minutes (600 rpm/min), followed by centrifugation at 6000 rpm/min for 15 minutes. 80 μL of supernatant of each well were transferred into a 96-well sample plate containing 140 μL of ultrapure water to perform LC/MS analysis. The analysis of biological samples and all samples were completed by the analysis laboratory of Medicipia Pharmaceutical Technology (Shanghai) Co., Ltd.

[2] = system: human T lymphoblastic lymphoma cell line Jurkat; assay: CCK-8 in vitro proliferation inhibition; type: cell-based; conditions: 72 hours, read-out: Inhibitory activity (IC50) on cell proliferation, JURKAT
Experimental: (§1) Cell lines: human chronic myeloid leukemia cell line K562, human acute myeloid leukemia cell line U937, human T lymphocyte leukemia cell line HuT78, and human T lymphoblastic lymphoma cell line Jurkat. Cells were purchased from the Chinese Academy of Sciences Stem Cell Bank or ATCC.
(§2) […] were cultured overnight and suspended cells were directly stimulated with drugs. […] Two repeats were set for each concentration, with a final volume of 200 μL. […] The absorbance values at 450 nm and 650 nm were measured using a microplate reader, and the increment Z (A450-A650) was derived. The inhibitory rate of drugs on cell growth was calculated by GraphPad Prism 8.0.0 through the following formula:
(§3) Inhibition rate (%)(ODcontrol−ODdosing)/ODcontrol×100%
(§4) The half inhibitory concentration (IC50) was calculated. Every experiment was repeated at least three times.

[3] = system: human T lymphocyte leukemia cell line HuT78; assay: CCK-8 in vitro proliferation inhibition; type: cell-based; conditions: read-out: Inhibitory activity (IC50) on cell proliferation, HUT78
Experimental: as §1, §2, §3, §4

[4] = system: human acute myeloid leukemia cell line U937; assay: CCK-8 in vitro proliferation inhibition; type: cell-based; conditions: read-out: Inhibitory activity (IC50) on cell proliferation, U937
Experimental: as §1, §2, §3, §4

[5] = system: human chronic myeloid leukemia cell line K562; assay: CCK-8 in vitro proliferation inhibition; type: cell-based; conditions: read-out: Inhibitory activity (IC50) on cell proliferation, K562
Experimental: as §1, §2, §3, §4

[6] = system: other subtypes (JAK family); conditions: 1 mM ATP concentration; read-out: IC50 of the kinase, other subtypes; cited from earlier work
[7] = molecular target: JAK1 (Homo sapiens (Human), UniProt P23458); assay: Z′-Lyte kinase inhibitory activity test; type: biochemical; conditions: ATP concentration Km
Experimental: (§5) Test method: Firstly, test compounds were prepared into 10 mM stock solution with DMSO, and continuously diluted into 10 concentrations at a 3-fold gradient for later use. 5X reaction buffer was diluted with deionized water into 1×reaction buffer (50 mM HEPES pH 7.5, 0.01% Brij-35, 10 mM MgCl2, 1 mM EGTA), which was used to prepare a mixture of kinase and peptide substrate, as well as a phosphorylated peptide substrate solution. The kinase concentration was determined based on enzyme titration, and the final concentration of peptide substrate and phosphorylated peptide substrate was 2 μM. 5 μL of mixture substrate of kinase and peptide substrate was added to each well on the 384 well plate. Then 5 nL of the test compound (starting with a final concentration of 10 μM) was added with an Echo520 Sampler. […] An additional 100% phosphorylation well (5 μL phosphorylated peptide substrate solution), a 0% phosphorylated well (5 μL of a mixture of kinase and peptide substrate, without test compounds and ATP), and a 0% inhibitory well (5 μL of a mixture of kinase and peptide substrate and appropriate concentration of ATP) were set as control. Two repeats were set for each concentration. The above reaction system was incubated at 30° C. for 1.5 hours. […] 2.5 μL of the diluted mixture was added to each well and the system was incubated at 30° C. for another 1 hour. […] The substrate phosphorylation rate was obtained by calculating the ratio, and the activity of the kinase and the effect of the inhibitor on the kinase was further calculated. Every experiment was repeated at least three times.

[8] = molecular target: JAK2 (Homo sapiens (Human), UniProt O60674); assay: Z′-Lyte kinase inhibitory activity test; type: biochemical
Experimental: as §5

[9] = molecular target: JAK3 (Homo sapiens (Human), UniProt P52333); assay: Z′-Lyte kinase inhibitory activity test; type: biochemical
Experimental: as §5

[10] = molecular target: TYK2 (Homo sapiens (Human), UniProt P29597); assay: Z′-Lyte kinase inhibitory activity test; type: biochemical; conditions: ATP concentration Km
Experimental: as §5

JAK3, sequence (P52333 whole entry): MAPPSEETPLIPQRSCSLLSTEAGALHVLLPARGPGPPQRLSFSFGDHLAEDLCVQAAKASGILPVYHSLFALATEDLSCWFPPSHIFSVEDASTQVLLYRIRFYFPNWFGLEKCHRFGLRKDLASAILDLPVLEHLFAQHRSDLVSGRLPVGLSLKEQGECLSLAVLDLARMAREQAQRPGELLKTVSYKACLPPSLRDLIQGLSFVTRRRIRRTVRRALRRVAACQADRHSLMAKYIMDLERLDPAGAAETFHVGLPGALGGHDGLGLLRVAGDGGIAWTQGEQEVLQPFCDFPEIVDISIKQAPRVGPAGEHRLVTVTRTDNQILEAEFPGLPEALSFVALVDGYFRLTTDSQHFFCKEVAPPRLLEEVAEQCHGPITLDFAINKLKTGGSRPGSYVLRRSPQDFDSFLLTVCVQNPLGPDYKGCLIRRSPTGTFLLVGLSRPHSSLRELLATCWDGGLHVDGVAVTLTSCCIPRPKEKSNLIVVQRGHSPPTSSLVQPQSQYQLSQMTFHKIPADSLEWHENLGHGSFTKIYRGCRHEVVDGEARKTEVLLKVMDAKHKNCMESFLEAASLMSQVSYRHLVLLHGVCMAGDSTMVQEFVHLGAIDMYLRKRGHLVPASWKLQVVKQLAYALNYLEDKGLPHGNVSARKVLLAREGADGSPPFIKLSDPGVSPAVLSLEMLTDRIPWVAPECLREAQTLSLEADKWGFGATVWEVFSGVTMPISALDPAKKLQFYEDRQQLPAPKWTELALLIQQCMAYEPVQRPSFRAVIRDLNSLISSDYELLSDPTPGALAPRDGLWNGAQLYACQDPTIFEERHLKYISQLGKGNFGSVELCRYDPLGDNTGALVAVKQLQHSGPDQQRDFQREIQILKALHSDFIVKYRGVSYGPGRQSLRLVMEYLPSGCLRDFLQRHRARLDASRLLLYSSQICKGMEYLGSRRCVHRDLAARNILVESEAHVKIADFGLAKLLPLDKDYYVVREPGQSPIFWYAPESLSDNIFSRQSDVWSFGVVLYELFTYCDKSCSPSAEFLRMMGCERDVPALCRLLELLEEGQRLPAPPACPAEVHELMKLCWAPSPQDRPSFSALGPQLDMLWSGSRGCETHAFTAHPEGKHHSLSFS
JAK2, sequence (O60674 whole entry): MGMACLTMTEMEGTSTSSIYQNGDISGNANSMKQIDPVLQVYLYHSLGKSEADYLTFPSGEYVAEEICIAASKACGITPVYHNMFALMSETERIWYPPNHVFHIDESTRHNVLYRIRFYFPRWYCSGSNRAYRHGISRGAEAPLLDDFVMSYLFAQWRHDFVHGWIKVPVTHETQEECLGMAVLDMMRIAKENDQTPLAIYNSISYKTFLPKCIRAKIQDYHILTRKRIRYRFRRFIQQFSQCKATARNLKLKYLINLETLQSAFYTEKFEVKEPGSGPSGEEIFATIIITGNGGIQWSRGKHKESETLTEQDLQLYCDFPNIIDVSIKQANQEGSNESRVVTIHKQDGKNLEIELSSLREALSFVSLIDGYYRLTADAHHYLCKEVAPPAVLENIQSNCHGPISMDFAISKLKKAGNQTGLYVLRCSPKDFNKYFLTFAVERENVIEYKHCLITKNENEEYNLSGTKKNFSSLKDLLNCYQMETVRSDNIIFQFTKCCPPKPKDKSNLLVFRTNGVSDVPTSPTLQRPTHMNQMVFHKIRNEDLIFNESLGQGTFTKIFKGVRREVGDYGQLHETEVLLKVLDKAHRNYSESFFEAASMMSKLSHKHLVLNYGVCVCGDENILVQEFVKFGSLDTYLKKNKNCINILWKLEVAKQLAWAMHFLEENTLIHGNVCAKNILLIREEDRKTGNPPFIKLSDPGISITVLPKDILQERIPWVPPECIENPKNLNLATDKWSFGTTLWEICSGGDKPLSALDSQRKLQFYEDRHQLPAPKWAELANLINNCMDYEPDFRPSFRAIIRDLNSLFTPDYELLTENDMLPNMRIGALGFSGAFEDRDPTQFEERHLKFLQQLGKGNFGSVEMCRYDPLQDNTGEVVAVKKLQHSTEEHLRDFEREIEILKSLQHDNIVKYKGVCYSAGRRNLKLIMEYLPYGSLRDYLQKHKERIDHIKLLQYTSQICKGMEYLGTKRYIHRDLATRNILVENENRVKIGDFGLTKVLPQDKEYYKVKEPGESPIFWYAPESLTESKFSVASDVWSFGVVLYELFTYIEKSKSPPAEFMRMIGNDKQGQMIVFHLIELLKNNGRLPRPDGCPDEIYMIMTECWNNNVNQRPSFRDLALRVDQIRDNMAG
JAK1, sequence (P23458 whole entry): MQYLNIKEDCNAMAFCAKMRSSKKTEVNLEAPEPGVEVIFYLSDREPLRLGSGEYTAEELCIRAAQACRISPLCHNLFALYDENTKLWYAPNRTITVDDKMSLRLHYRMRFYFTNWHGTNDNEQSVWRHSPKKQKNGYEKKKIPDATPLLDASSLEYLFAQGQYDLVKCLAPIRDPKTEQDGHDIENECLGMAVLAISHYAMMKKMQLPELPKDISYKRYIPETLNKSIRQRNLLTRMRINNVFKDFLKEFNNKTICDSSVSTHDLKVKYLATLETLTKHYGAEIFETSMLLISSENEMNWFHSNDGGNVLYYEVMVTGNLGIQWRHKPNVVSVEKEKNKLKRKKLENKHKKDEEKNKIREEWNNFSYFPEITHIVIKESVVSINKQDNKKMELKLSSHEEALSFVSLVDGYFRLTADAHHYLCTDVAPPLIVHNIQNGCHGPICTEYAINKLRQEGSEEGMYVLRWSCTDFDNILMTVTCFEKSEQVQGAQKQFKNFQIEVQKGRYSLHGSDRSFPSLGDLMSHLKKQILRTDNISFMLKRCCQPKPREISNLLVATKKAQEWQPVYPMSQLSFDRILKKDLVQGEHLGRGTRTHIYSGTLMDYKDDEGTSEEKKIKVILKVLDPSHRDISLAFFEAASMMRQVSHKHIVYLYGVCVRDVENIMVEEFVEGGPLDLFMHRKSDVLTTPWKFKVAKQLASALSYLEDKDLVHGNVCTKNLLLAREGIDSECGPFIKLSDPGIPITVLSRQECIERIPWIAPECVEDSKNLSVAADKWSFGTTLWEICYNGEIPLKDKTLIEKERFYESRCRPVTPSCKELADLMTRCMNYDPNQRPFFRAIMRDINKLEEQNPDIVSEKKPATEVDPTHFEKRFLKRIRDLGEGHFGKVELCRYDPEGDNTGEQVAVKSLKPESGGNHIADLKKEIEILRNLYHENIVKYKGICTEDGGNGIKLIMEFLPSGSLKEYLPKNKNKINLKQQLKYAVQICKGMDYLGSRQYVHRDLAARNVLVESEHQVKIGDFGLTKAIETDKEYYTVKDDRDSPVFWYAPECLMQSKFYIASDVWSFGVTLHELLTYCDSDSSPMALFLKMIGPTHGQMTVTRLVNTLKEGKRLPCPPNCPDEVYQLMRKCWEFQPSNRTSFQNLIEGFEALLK
TYK2, sequence (P29597 whole entry): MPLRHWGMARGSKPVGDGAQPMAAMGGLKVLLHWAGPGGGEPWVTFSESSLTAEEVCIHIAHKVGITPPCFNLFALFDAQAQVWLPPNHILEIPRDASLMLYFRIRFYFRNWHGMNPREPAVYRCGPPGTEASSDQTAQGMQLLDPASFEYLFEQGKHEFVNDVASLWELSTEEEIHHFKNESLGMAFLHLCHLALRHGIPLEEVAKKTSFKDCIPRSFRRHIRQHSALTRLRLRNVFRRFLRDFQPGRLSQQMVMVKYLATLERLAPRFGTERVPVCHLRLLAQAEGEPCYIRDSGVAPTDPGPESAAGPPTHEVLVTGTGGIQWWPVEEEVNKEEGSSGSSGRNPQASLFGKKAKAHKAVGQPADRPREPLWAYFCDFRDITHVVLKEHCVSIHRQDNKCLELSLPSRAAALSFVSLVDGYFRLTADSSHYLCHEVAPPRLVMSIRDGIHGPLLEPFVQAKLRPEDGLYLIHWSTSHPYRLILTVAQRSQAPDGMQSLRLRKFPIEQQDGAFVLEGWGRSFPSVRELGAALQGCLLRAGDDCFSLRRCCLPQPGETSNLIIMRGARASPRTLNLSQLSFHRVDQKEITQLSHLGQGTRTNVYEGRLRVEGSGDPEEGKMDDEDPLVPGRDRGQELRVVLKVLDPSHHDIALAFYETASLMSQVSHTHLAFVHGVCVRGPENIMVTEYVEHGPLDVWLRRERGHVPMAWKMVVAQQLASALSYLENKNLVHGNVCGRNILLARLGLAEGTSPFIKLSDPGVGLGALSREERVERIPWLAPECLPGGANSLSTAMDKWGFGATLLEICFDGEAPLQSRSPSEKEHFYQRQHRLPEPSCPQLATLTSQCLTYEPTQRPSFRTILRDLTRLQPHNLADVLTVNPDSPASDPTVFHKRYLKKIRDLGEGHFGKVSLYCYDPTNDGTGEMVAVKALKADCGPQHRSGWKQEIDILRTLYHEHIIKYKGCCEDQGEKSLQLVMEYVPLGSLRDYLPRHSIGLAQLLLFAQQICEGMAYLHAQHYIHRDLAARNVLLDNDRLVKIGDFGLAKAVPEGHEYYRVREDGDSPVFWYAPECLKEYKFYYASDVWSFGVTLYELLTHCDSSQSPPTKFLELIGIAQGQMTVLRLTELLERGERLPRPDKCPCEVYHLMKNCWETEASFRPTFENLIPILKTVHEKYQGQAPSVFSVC

## O=C(c1ccc(F)cc1)C1CCN(CCn2c(=O)[nH]c3ccccc3c2=O)CC1 [ketanserin, reference compound]
[1]; 0 min
  Remaining percentage: 100.00%
[1]; 5 min
  Remaining percentage: 75.87%
[1]; 15 min
  Remaining percentage: 42.60%
[1]; 30 min
  Remaining percentage: 29.98%
[1]; 45 min
  Remaining percentage: 17.88%
[1]; rat, liver microsomes, pH 7.4, rat liver microsomes, read-out: Clint
  CLint scaled at 1 µM: 133 mL/min/kg
[1]; rat, liver microsomes, pH 7.4, rat liver microsomes, read-out: T1/2
  half-life at 1 µM: 18.7 min

## C=CC(=O)N1C[C@H](Nc2ncnc3[nH]ccc23)CC[C@@H]1C [PF-06651600, reference compound]
[2]
  IC50: > 30000 nM
[3]; 72 hours
  IC50: > 30000 nM
[4]; 72 hours
  IC50: 19.5 nM
[5]; 72 hours
  IC50: > 30000 nM
[6]
  IC50: > 10000 nM

## C=C(C)C(=O)Nc1cc(Nc2ncc(Cl)c(O[C@@H]3CO[C@H]4[C@@H]3OC[C@H]4O)n2)ccc1N1CCC(N2CCN(C)CC2)CC1 [LS 5-73]
[7]
  IC50: 1730 nM
[8]; ATP concentration Km
  IC50: 1630 nM
[9]; ATP concentration 1 mM
  IC50: 4940 nM
[9]; ATP concentration Km
  IC50: 72.4 nM
[10]
  IC50: 312 nM
[2]; Homo sapiens, Jurkat
  IC50: 2240 nM
[3]; Homo sapiens, HuT78, 72 hours
  IC50: 476 nM
[4]; Homo sapiens, U-937, 72 hours
  IC50: 246 nM
[5]; Homo sapiens, K562, 72 hours
  IC50: 117 nM

## C=CC(=O)Nc1cc(Nc2ncc(Cl)c(O[C@@H]3CO[C@H]4[C@@H]3OC[C@H]4OC)n2)ccc1N1CCC(N2CCN(C)CC2)CC1 [LS 6-16]
[7]
  IC50: 533 nM
[8]
  IC50: 967 nM
[9]
  IC50: 8.12 nM and 12.5 nM
[10]
  IC50: 906 nM
[2]
  IC50: 136 nM
[3]; 72 hours
  IC50: 121 nM
[4]; 72 hours
  IC50: 24 nM
[5]; 72 hours
  IC50: 191 nM
